Data set [1] concerns NTox released by Aβ1-42-stimulated microglia (neuron killing). The data set is described as follows: cells. The data set is classed as cell-based, rat. The text has this: . Briefly, hippocampal cells obtained from embryonic stage 18 rat fetuses were dispersed mechanically in the presence of 0.125% trypsin and plated onto poly-L-lysine coated glass coverslips in 24 well plates at 250,000 cells per well (resulting in adhering cell densities of about 1250 cells per mm^2) in chemically-defined N2 culture media containing 5% fetal bovine serum. Gradual reduction of serum began on day 10 in vitro with daily 1:1 volume replacements with chemically-defined media, until a final concentration of 0.6% serum was achieved. […]; see FIG. 18). In order to eliminate microglia, cultures were exposed to saporin (sap; a ribosome-inactivating protein; Davis and Wiley, 1989) coupled to acetylated LDL (ac-LDL) at a concentration of 10 μg/ml for 12 hours. […] Cultures depleted of microglia were then exposed to test substances in the presence or absence of exogenous microglia (100,000 cells per culture). […]. Controls included cultures without saporin-treatment, cultures without test substances, and cultures with test substances but lacking microglia.
(§1) On day 14 of culture, immediately following saporin treatment, test substances were added to the hippocampal cultures. Synthetic peptide were supplied as 1 mM stock solutions in 0.1 M phosphate buffered saline, pH 7.2, stored for at least 1 week at 4° C. before use. After 72 hours incubation, the cultures were fixed in 4% paraformaldehyde at room temperature for 18 hours and immuno-stained by overnight incubation with a mixture of anti-neurofilament antibodies (NF; SMI-311, 1:600; Stemberger Monoclonals, Inc.) plus anti-MAP-2 (Boehringer Mannheim, 184959; 1:600) at 4° C. in the presence of 2% horse serum and 0.3% triton X-100 to delineate both neuronal cell bodies and neurites. Astroglia were visualized using sheep anti-glial fibrillary acidic protein (GFAP, Sigma) as described by Giulian et al., 1989. Finally, to label all cell nuclei, the coverslips were exposed to 0.01% bisbenzimide (Hoechst 33258; Sigma) in PBS, pH 6.9, and rinsed in distilled water and mounted in glycerin. Immuno-labeled cells per field and nuclei per field were scored at 200X magnification using fluorescence microscopy. Data were expressed as % mean survival expressed in terms of parallel untreated control cultures after scoring at least 20 randomly selected fields for each of 3 coverslips.
The procedures described above and by Giulian et al, 1996, provided for the identification of tyramine compounds as therapeutic agents for neurodegenerative diseases or disorders including, for example, Alzheimer's disease. Cells from the brain of fetal rats were grown in tissue cultures. Microglial populations within the cultures were controlled following the method described in Example 5 above. Known amounts of Aβ peptides coupled to microspheres were added to the culture. The Aβ spheres stimulated the microglia to release NTox, which in turn destroyed the neurons. The neurons in the cultures were monitored for survival by immuno-staining.
Generally, drug assays involve the addition of known concentrations of a test agent over a range of concentrations. After 72 hours, the experiment is stopped and the neurons are identified by immuno-staining. The data is expressed as % neuronal survival […]. Dose response curves are then used to estimate Effective Dose50 % (ED50) of neuroprotective agents. […].
In this experiment, about 65% of the neurons were destroyed by the Aβ-stimulated microglia. […] Other tyramine compounds, including tyrosine esters, were neuroprotective (FIG. 30).
Following the methods described herein, numerous compounds were examined to determine their neuroprotective activity. […]

The subject of another data set is NTox. The data set is described as follows: protection of neurons against isolated NTox applied directly. The data set is classed as cell-based. The conditions noted are these: isolated NTox; FIGS. 13, 32. An excerpt:
FIG. 32 is a graph showing the specificity of tyramine compounds to NTox. […].
Initial studies to characterize the neuroprotective effect of tyramine compounds employed microglia-neuron co-culture assays in the presence of Aβ or isolated senile plaques. Inhibition of neuron killing in […]--inhibition of microglial activation by Aβ or plaques; inhibition of NTox production and release by microglia; or inhibition of action of NTox upon neurons. […] Effective doses in the low nmolar range show the tyramine compounds to be very potent agents compared with low μmolar range of other neuroprotective drugs under development for neurological disorders.

A further data set relates to quinolinic acid (QUIN). Description: protection of neurons against quinolinic acid. The class given is cell-based. The conditions noted are these: QUIN (100 μM in FIG. 13). The text has this:
FIG. 32 is a graph showing the specificity of tyramine compounds to NTox. […]

The next data set concerns rat microglia. The data set is described as follows: binding of Aβ-coupled microspheres to microglia. The settings on record: 4 hours at 37° C. (72 h in FIG. 23).
A further data set concerns microglia. Description: inhibition of SpheresAβ1-42 binding to microglia. Also noted: species or system rat. The conditions noted are these: for SpheresAβ1-42 binding after enzymatic treatment of microglia: trypsin 5000 units/ml, heparinase 0.01 units/ml, chondroitinase ABC 0.02 units/ml. The procedure:
(§2) Spheresmal-BSA (which bind to scavenger receptors) or SpheresAβ1-42 were incubated with microglia for 4 hours following pre-treatment of cells with trypsin (5000 units/ml at 37° C. for 60 min followed by inactivation with soybean trypsin inhibitor), with heparinase (heparin lyase EC 4.2.2.7; two consecutive treatments each of 0.01 units/ml for 60 min), or with chondroitinase ABC (chondroitin ABC lyase EC 4.3.3.4; two consecutive treatments each of 0.02 units/ml for 60 min). […] Microglia mixed with hippocampal neurons were treated with combinations of β-D-xyloside (1 mm), heparinase (0.02 units/ml), or chondroitinase (0.04 units/ml) and then exposed to plaques.
Each well then received 250,000 SpheresAβ1-42 or Spheresmal-BSA in the presence or absence of Aβ peptides, GAGs, or scavenger receptor ligands. Binding assays were carried out at 37° C. for 4 hours after which coverslips were dipped 10 times in phosphate buffer and fixed with 4% buffered paraformaldehyde. Microsphere adherence to cells was scored at 200 magnification with phase/fluorescence microscopy. Data, expressed as % inhibition of sphere binding, was calculated from total number of spheres per field noted for control cultures receiving spheres only. Values are based upon at least 3 coverslips from 2 independent experiments. […] Washed spheres were resuspended in 0.2 M borate buffer (pH 8.5) in the presence of 300 μg Aβ or 400 μg BSA in 6% DMSO. After overnight mixing at room temperature, the spheres were washed extensively and blocked by 1 M glycine (pH 8.0) for 30 minutes.

Data set [2] deals with Aβ1-42-stimulated microglia. The data set is classed as cell-based, rat. The conditions noted are these: for blocking of Aβ1-42 induced microglial neurotoxicity by peptides: 10 μmoles/liter peptide, 1 μmole/liter Aβ1-42; for IC50: read-out: ED50 (blocking of Aβ1-42 induced neurotoxicity), FIG. 16B.
Excerpt: (§3) Briefly, hippocampal cells obtained from embryonic stage 18 rat fetuses were dispersed mechanically in the presence of 0.125% trypsin and plated onto poly-L-lysine coated glass coverslips in 24 well plates at 250,000 cells per well (resulting in adhering cell densities of about 1250 cells per mm^2) in chemically-defined N2 culture media containing 5% fetal bovine serum. Gradual reduction of serum began on day 10 in vitro with daily 1:1 volume replacements with chemically-defined media, until a final concentration of 0.6% serum was achieved. […] In order to eliminate microglia, cultures were exposed to saporin (sap; a ribosome-inactivating protein; Davis and Wiley, 1989) coupled to acetylated LDL (ac-LDL) at a concentration of 10 μg/ml for 12 hours. […] Cultures depleted of microglia were then exposed to test substances in the presence or absence of exogenous microglia (100,000 cells per culture). […] Controls included cultures without saporin-treatment, cultures without test substances, and cultures with test substances but lacking microglia.
as §1

For data set [3], the system named is reactive microglia in rat neocortex. The data set is described as follows: brain inflammatory response after infusion into neocortex of adult rat. The class given is in vivo. The conditions noted are these: 0.5 nmoles Aβ1-42, co-infusion of 1.0 nmole peptide; 5 days.
Another data set concerns hippocampal neurons. The class given is cell-based, rat. The conditions noted are these: absence of microglia.
Excerpt: as §3, §1

For data set [4], the system named is rat microglia / hippocampal neurons. The conditions noted are these: for induction of neurotoxic microglia / neuron killing: rat microglia, mostly 1 μmole/l.
Data set [5] relates to human microglia. The data set is described as follows: induction of neuron-killing human microglia. The class given is cell-based. The conditions noted are these: 1 μmole/liter synthetic peptides.
Data set [6] concerns human microglia. Description: nitrite/nitrate production, human microglia. The data set is classed as cell-based. As for the experimental part:
Nitrites and nitrates, stable byproducts of nitric oxide synthetase (NOS) served as markers for nitric oxide (NO) synthesis (Ignarro, 1990). […]; for 24 to 72 hours incubated in the presence of neuritic/core plaques or Aβ peptides) were measured by the Griess method set forth by Beckman et al., 1990 against a standard curve ranging from 0.1 to 50.0 μM nitrate.

Data set [7] is classed as physicochemical. The conditions noted are these: chemically defined culture media, 37° C.; Table 2. The text has this:
Solubility of peptides is described for chemicallydefined culture media a […]

In data set [8] the test system is plaque-stimulated microglia. Description: blocking of plaque-induced microglial neurotoxicity. The conditions noted are these: FIG. 16C. The class given is cell-based, rat.
For another data set, the system named is scavenger receptor. Description: inhibition of Spheresmal-BSA binding to microglia. Also noted: species or system rat. The procedure: as §2
Each well then received 250,000 SpheresAβ1-42 or Spheresmal-BSA in the presence or absence of Aβ peptides, GAGs, or scavenger receptor ligands. Binding assays were carried out at 37° C. for 4 hours after which coverslips were dipped 10 times in phosphate buffer and fixed with 4% buffered paraformaldehyde. Microsphere adherence to cells was scored at 200 magnification with phase/fluorescence microscopy. Data, expressed as % inhibition of sphere binding, was calculated from total number of spheres per field noted for control cultures receiving spheres only. Values are based upon at least 3 coverslips from 2 independent experiments. […]

“Also recorded” adds a separate entry of the source. Like-named read-outs stand apart in the source and are kept apart here.

Take `NCCc1ccc(O)cc1` [tyramine]: in data set [1] (10 μM, 72 hours, FIG. 30), the protective effect entry was “completely prevented neuron death”. Moreover, the “neuroprotective activity (structure/function)” value in data set [1] (Example 14) is listed as “enhance neuroprotective effects”. For the same compound, the EC50 in data set [1] (Rattus norvegicus, Aβ-stimulated microglia, 72 h, FIG. 31, read-out: ED50 (neuroprotection)) was about 200 nM. Also, in the data set with NTox, the “inhibition of killing action of NTox applied to neurons” value is recorded as “prevented neuronal injury”. In addition, in the data set with quinolinic acid (QUIN), the “protection against quinolinic acid” value is given as “did not occur with quinolinic acid”.

In the case of “Aβ1-5: Aβ peptide residues 1-5 (DAEFR; Amyloid-beta protein 42; UniProt P05067 672-676, looked up, fragment)”, in the data set on rat microglia, the “binding of peptide-coupled microspheres to microglia” value is listed as “did not”. The “inhibition of SpheresAβ1-42 binding by peptides” value in the data set with microglia (10 μmoles/l, 4 hours, 37° C.) was “did not”. For the same compound, in [2], the “blocking of Aβ1-42 induced microglial neurotoxicity by peptides” value is on record as “did not”. Further, the “local brain inflammatory response” value in [3] was “did not alter inflammation”.

As to Aβ1-43: small Aβ peptide (as printed), in the data set on hippocampal neurons, the “direct neurotoxicity without microglia” value is “did not produce neurotoxicity”. For the same compound, the “induction of neurotoxic microglia / neuron killing” value in data set [4] is recorded as “did not produce neurotoxicity”.

For the compound “Aβ1-40: synthetic human β-amyloid peptide 1-40”, in the data set on human microglia [5], the “induction of neurotoxic human microglia” value is listed as “very potent inducers of neurotoxic human microglia; also recorded: stimulated release of neurotoxin from human microglia”. Further, the “binding of peptide-coupled microspheres to microglia” value in the data set on rat microglia is on record as “marked glial binding”. Besides, the “release of nitrate or nitrite, human microglia” value with human microglia [6] is “did not bring about release of nitrate or nitrites”. Further, the Solubility entry in data set [7] was “moderately soluble”. In data set [4], the “neuron killing, microglia separated from neurons (no contact)” value was “stimulated microglia to destroy neurons”. Moreover, in data set [4] (500 microglia per mm^2), the “ED50 (neuron killing via microglia)” value was about 80 nM. Besides, the “induction of neurotoxic microglia / neuron killing” value in [4] (listed as A1-40) is “neuron killing could be induced”. In addition, the killing of neurons in data set [4] (rat, hippocampal neurons, 72 h, 1 µM) is on record as 70-80%.

For “Aβ13-16: residues His13, His14, Gln15, and Lys16 (the HHQK domain within Aβ) (Amyloid-beta protein 42; UniProt P05067 684-687, looked up, fragment)”, in data set [2], the “blocking of Aβ1-42 induced microglial neurotoxicity by peptides” value is recorded as “blocked neurotoxin production” and the IC50 is about 30 nM. Further, the “blocking of Aβ1-42 induced microglial neurotoxicity by peptides” value in data set [2] (listed as HHQK) is on record as “one of the most potent plaque suppressor peptides identified”. Besides, the “blocking of plaque-induced microglial toxicity by peptides” value in [8] is “blocked plaque-induced toxicity in vitro”. The “local brain inflammatory response” value in [3] is “blocks the interaction of Aβ1-42 with microglia in vivo and reduces the local brain inflammatory response; also recorded: markedly reduced”.

On to dextran sulfate, for which the “inhibition of SpheresAβ1-42 binding by GAGs and scavenger receptor ligands” value with microglia (heparin sulfate 50 μg/ml, dextran sulfate 500 μg/ml, ac-LDL 200 μg/ml) is “only heparin sulfate blocked; also recorded: not similar compounds”. Also, the “inhibition of Spheresmal-BSA binding by ligands” value in the data set on scavenger receptor (dextran sulfate 500 μg/ml, ac-LDL 200 μg/ml, Aβ1-16 10 μmole/l) was “blocked”.

Take trypsin: the entries for the “SpheresAβ1-42 binding after enzymatic treatment of microglia” value with microglia and in the data set on microglia (listed as trypsinization) were “reduced by trypsin” and “markedly reduced”, respectively. Also, the “Spheresmal-BSA binding after enzymatic treatment of microglia” value in the data set on scavenger receptor (trypsin 5000 units/ml, chondroitinase ABC 0.02 units/ml) is reported as “reduced by trypsin”.

Regarding “Aβ13-20: Aβ peptide residues 13-20 (HHQKLVFF; Amyloid-beta protein 42; UniProt P05067 684-691, looked up, fragment)”, the IC50 in data set [2] came to 250 nM. For the same compound, in [8], the “blocking of plaque-induced microglial toxicity by peptides” value is “blocked plaque-induced toxicity in vitro”.

(Values after patent US6043283A, “Tyramine compounds and their neuronal effects” (priority 1997, dated 2000).)
